Results published in patent US10392383B2, “3-(1H-benzo[d]imidazol-2-yl)-1H-pyrazolo[4,3-b]pyridines and therapeutic uses thereof” (Samumed, LLC, priority 2015, dated 2019).

Tests used:
Assay type in all cases: cell-based
[1] = tested on: Wnt activity (Sp5-Luc reporter, Wnt-responsive promoter) in SW480 colon carcinoma cells; assay: Wnt activity screening assay: Sp5-Luc reporter gene assay in SW480 cells; conditions: Homo sapiens; for EC50: overnight incubation, 10-point curve starting from 10 μM; for inhibition at 10 µM: read-out: percent inhibition at 10 μM (given for EC50 of >10 μM)
Summary of the method: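 Wnt-driven firefly luciferase in SW480 colon carcinoma cells reports pathway activity after overnight compound exposure (10 μM top concentration, 3-fold steps). Signal is normalized to DMSO controls.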

SW480 colon cancer cells = assay: Cell viability assay (CellTiter-Blue) in SW480 cells; conditions: Homo sapiens, 96 h, four days; for EC50: CellTiter-Blue, 10 μM to 0.0045 μM; for inhibition at 10 µM: read-out: percent inhibition at 10 μM (given for EC50 of >10 μM)
Summary of the method: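 Resazurin reduction (Ex 560/Em 590 nm, ~3 h reagent incubation) served as the viability read-out after SW480 cells were treated for four days at 37 °C. Doses ran from 10 μM down to 0.0045 μM in eight 1:3 steps. Curves fitted non-linearly for EC50, else % inhibition at 10 μM reported.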

IL-6 (THP-1 cells) = assay: IL-6 inhibition in LPS-stimulated THP-1 monocytes (HTRF); conditions: Homo sapiens, IL-6 HTRF; for EC50: 500 ng/mL LPS, Table 6; for inhibition at 10 µM: LPS, Table 6, read-out: percent inhibition at 10 μM (given in parentheses for EC50 >10 μM)
Summary of the method: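 THP-1 cells in 1% FBS pre-incubated 2 h with compound (10-point 1:3 series from 10 μM, 0.1% DMSO), then stimulated with 500 ng/mL LPS for 22 h at 37 °C. IL-6 measured by HTRF 665/620 ratio, normalized to DMSO; EC50 by four-parameter fit, or % inhibition at 10 μM when EC50 >10 μM.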

| EC50 [1] | EC50 (SW480 colon cancer cells) | EC50 (IL-6 (THP-1 cells)) | SMILES | inhibition at 10 µM (SW480 colon cancer cells) | inhibition at 10 µM (IL-6 (THP-1 cells)) | inhibition at 10 µM [1] |
| --- | --- | --- | --- | --- | --- | --- |
| 4.61 µM | 5.94 µM | > 10 µM | COc1cccc(-c2cccc3[nH]c(-c4n[nH]c5ccc(-c6cccnc6)nc45)nc23)c1 [Compound 994, 3-(4-(3-Methoxyphenyl)-1H-benzo[d]imidazol-2-yl)-5-(pyridin-3-yl)-1H-pyrazolo[4,3-b]pyridine] | – | 32.2% | – |
| > 10 µM | > 10 µM | > 10 µM | COc1cccc(-c2cccc3[nH]c(-c4n[nH]c5ccc(-c6cn[nH]c6)nc45)nc23)c1 [Compound 1020, 3-(4-(3-Methoxyphenyl)-1H-benzo[d]imidazol-2-yl)-5-(1H-pyrazol-4-yl)-1H-pyrazolo[4,3-b]pyridine] | 12.6% | 23.7% | 18.9% |
| 3.97 µM | 5.74 µM | 4.49 µM | COc1cccc(-c2cccc3[nH]c(-c4n[nH]c5ccc(-c6cncc(OC7CCNCC7)c6)nc45)nc23)c1 [Compound 1025, 3-(4-(3-Methoxyphenyl)-1H-benzo[d]imidazol-2-yl)-5-(5-(piperidin-4-yloxy)pyridin-3-yl)-1H-pyrazolo[4,3-b]pyridine] | – | – | – |
| 3.3 µM | > 10 µM | > 10 µM | O=C(Nc1cncc(-c2ccc3[nH]nc(-c4nc5c(-c6ccc(Cl)s6)cccc5[nH]4)c3n2)c1)C1CCC1 [Compound 1056, N-(5-(3-(4-(5-Chlorothiophen-2-yl)-1H-benzo[d]imidazol-2-yl)-1H-pyrazolo [4,3-b]pyridin-5-yl)pyridin-3-yl)cyclobutanecarboxamide] | 0% | 47.8% | – |
| 3.52 µM | 2.28 µM | > 10 µM | c1cc(-c2ccc3c(c2)OCO3)c2nc(-c3n[nH]c4ccc(C5CCNCC5)nc34)[nH]c2c1 [Compound 1108, 3-(4-(Benzo[d][1,3]dioxol-5-yl)-1H-benzo[d]imidazol-2-yl)-5-(piperidin-4-yl)-1H-pyrazolo[4,3-b]pyridine] | – | 4.6% | – |
| 2.2 µM | 3.01 µM | 9.72 µM | Cn1cc(-c2ccc3[nH]nc(-c4nc5c(-c6ccc(F)cc6)cccc5[nH]4)c3n2)c(CO)n1 [Compound 1129, (4-(3-(4-(4-Fluorophenyl)-1H-benzo[d]imidazol-2-yl)-1H-pyrazolo[4,3-b]pyridin-5-yl)-1-methyl-1H-pyrazol-3-yl)methanol] | – | – | – |
| 0.929 µM | 0.613 µM | > 10 µM | Cn1cc(-c2ccc3[nH]nc(-c4nc5c(-c6ccc7c(c6)OCO7)cccc5[nH]4)c3n2)c(CO)n1 [Compound 1152, (4-(3-(4-(Benzo[d][1,3]dioxol-5-yl)-1H-benzo[d]imidazol-2-yl)-1H-pyrazolo[4,3-b]pyridin-5-yl)-1-methyl-1H-pyrazol-3-yl)methanol] | – | 23.3% | – |

The remaining lines, values behind:

| SMILES | EC50 [1] | EC50 (SW480 colon cancer cells) | EC50 (IL-6 (THP-1 cells)) | inhibition at 10 µM (SW480 colon cancer cells) | inhibition at 10 µM (IL-6 (THP-1 cells)) | inhibition at 10 µM [1] |
| --- | --- | --- | --- | --- | --- | --- |
| CN(C)CCNc1cc(F)cc(-c2cccc3[nH]c(-c4n[nH]c5ccc(-c6cnccn6)nc45)nc23)c1 [Compound 792, N^1-(3-Fluoro-5-(2-(5-(pyrazin-2-yl)-1H-pyrazolo[4,3-b]pyridin-3-yl)-1H-benzo[d]imidazol-4-yl)phenyl)-N^2,N^2-dimethylethane-1,2-diamine] | 3.96 µM | 4.23 µM | 0.686 µM | – | – | – |
| CN(C)CC(=O)Nc1cncc(-c2ccc3[nH]nc(-c4nc5c(-c6cccc(F)c6)cccc5[nH]4)c3n2)c1 [Compound 969, 2-(Dimethylamino)-N-(5-(3-(4-(3-fluorophenyl)-1H-benzo[d]imidazol-2-yl)-1H-pyrazolo[4,3-b]pyridin-5-yl)pyridin-3-yl)acetamide] | 3.99 µM | > 10 µM | > 10 µM | 25.3% | 39% | – |
| COc1cccc(-c2cccc3[nH]c(-c4n[nH]c5ccc(-c6cncc(NC(=O)Cc7ccccc7)c6)nc45)nc23)c1 [Compound 1000, N-(5-(3-(4-(3-Methoxyphenyl)-1H-benzo[d]imidazol-2-yl)-1H-pyrazolo[4,3-b]pyridin-5-yl)pyridin-3-yl)-2-phenylacetamide] | 3.25 µM | 4.13 µM | 0.812 µM | – | – | – |
| COc1cccc(-c2cccc3[nH]c(-c4n[nH]c5ccc(-c6cncc(NC(=O)CC(C)(C)C)c6)nc45)nc23)c1 [Compound 1006, N-(5-(3-(4-(3-methoxyphenyl)-1H-benzo[d]imidazol-2-yl)-1H-pyrazolo[4,3-b]pyridin-5-yl)pyridin-3-yl)-3,3-dimethylbutanamide] | 2.41 µM | 5.91 µM | > 10 µM | – | 23.8% | – |
| COc1cccc(-c2cccc3[nH]c(-c4n[nH]c5ccc(-c6cncc(NC(=O)C7CCCCC7)c6)nc45)nc23)c1 [Compound 1012, N-(5-(3-(4-(3-Methoxyphenyl)-1H-benzo[d]imidazol-2-yl)-1H-pyrazolo[4,3-b]pyridin-5-yl)pyridin-3-yl)cyclohexanecarboxamide] | > 10 µM | > 10 µM | > 10 µM | 4.6% | 33% | 3.6% |
| COc1cccc(-c2cccc3[nH]c(-c4n[nH]c5ccc(-c6cncc(O)c6)nc45)nc23)c1 [Compound 1030, 5-(3-(4-(3-Methoxyphenyl)-1H-benzo[d]imidazol-2-yl)-1H-pyrazolo[4,3-b]pyridin-5-yl)pyridin-3-ol] | 0.98 µM | 1.01 µM | 0.0055 µM | – | – | – |
| CC(C)CC(=O)Nc1cncc(-c2ccc3[nH]nc(-c4nc5c(-c6ccc(Cl)s6)cccc5[nH]4)c3n2)c1 [Compound 1037, N-(5-(3-(4-(5-Chlorothiophen-2-yl)-1H-benzo[d]imidazol-2-yl)-1H-pyrazolo [4,3-b]pyridin-5-yl)pyridin-3-yl)-3-methylbutanamide] | 1.9 µM | 9.68 µM | > 10 µM | – | 19.5% | – |
| CC(C)(C)C(=O)Nc1cncc(-c2ccc3[nH]nc(-c4nc5c(-c6ccc(Cl)s6)cccc5[nH]4)c3n2)c1 [Compound 1043, N-(5-(3-(4-(5-chlorothiophen-2-yl)-1H-benzo[d]imidazol-2-yl)-1H-pyrazolo[4,3-b]pyridin-5-yl)pyridin-3-yl)pivalamide] | 1.31 µM | 5.27 µM | > 10 µM | – | 16.9% | – |
| Clc1ccc(-c2cccc3[nH]c(-c4n[nH]c5ccc(-c6cncc(CN7CCCC7)c6)nc45)nc23)s1 [Compound 1049, 3-(4-(5-Chlorothiophen-2-yl)-1H-benzo[d]imidazol-2-yl)-5-(5-(pyrrolidin-1-ylmethyl)pyridin-3-yl)-1H-pyrazolo[4,3-b]pyridine] | 1.25 µM | 0.584 µM | > 10 µM | – | 48.3% | – |
| NC1CN(c2cncc(-c3ccc4[nH]nc(-c5nc6c(-c7ccc(Cl)s7)cccc6[nH]5)c4n3)n2)C1 [Compound 1068, 1-(6-(3-(4-(5-Chlorothiophen-2-yl)-1H-benzo[d]imidazol-2-yl)-1H-pyrazolo [4,3-b]pyridin-5-yl)pyrazin-2-yl)azetidin-3-amine] | 1.24 µM | 0.953 µM | > 10 µM | – | 42.7% | – |
| C1=C(c2ccc3[nH]nc(-c4nc5c(-c6ccc7c(c6)OCO7)cccc5[nH]4)c3n2)CCNC1 [Compound 1109, 3-(4-(Benzo[d][1,3]dioxol-5-yl)-1H-benzo[d]imidazol-2-yl)-5-(1,2,3,6-tetrahydropyridin-4-yl)-1H-pyrazolo[4,3-b]pyridine] | 1.08 µM | 1.24 µM | 5.87 µM | – | – | – |
| O=C(Nc1cncc(-c2ccc3[nH]nc(-c4nc5c(-c6ccccc6F)cccc5[nH]4)c3n2)c1)C(F)(F)F [Compound 1126, 2,2,2-Trifluoro-N-(5-(3-(4-(2-fluorophenyl)-1H-benzo[d]imidazol-2-yl)-1H-pyrazolo[4,3-b]pyridin-5-yl)pyridin-3-yl)acetamide] | 0.892 µM | 4.36 µM | 0.0518 µM | – | – | – |
| CN1CCN(c2cccc3[nH]c(-c4n[nH]c5ccc(-c6cncc(NC(=O)C(F)(F)F)c6)nc45)nc23)CC1 [Compound 1127, 2,2,2-Trifluoro-N-(5-(3-(4-(4-methylpiperazin-1-yl)-1H-benzo[d]imidazol-2-yl)-1H-pyrazolo[4,3-b]pyridin-5-yl)pyridin-3-yl)acetamide] | 3.99 µM | 9.42 µM | 7.09 µM | – | – | – |
| Cn1cc(-c2ccc3[nH]nc(-c4nc5c(N6CCCCC6)cccc5[nH]4)c3n2)c(CO)n1 [Compound 1134, (1-Methyl-4-(3-(4-(piperidin-1-yl)-1H-benzo[d]imidazol-2-yl)-1H-pyrazolo [4,3-b]pyridin-5-yl)-1H-pyrazol-3-yl)methanol] | 3.39 µM | > 10 µM | > 10 µM | 18.2% | 28.3% | – |
